Patent publication US7666846B2, “Cholesterol-containing compounds and their use as immunogens against Borrelia burgdorferi” (The United States of America as represented by the …, priority 2003, dated 2010)
“Also recorded” adds a separate entry of the source.

Experiments:
[1] = Antibodies induced by BBGL-III (data not shown); assay type: in vivo
[2] = test system: immobilized polymixin B on agarose; assay: Affinity chromatography on Detoxi-Gel Endotoxin Removing Gel; assay type: binding; details: sonicated B. burgdorferi cells loaded; bound material eluted with 1% deoxycholic acid; TLC and immunolabeling
Method: Affinity Chromatography—BBGL-II was also purified by affinity chromatography using Detoxi-Gel Endotoxin Removing Gel (Pierce, Rockford, Ill.). Borrelia cells were washed 5 times with PBS, resuspended in the same buffer, and disrupted by ultrasonic treatment for 30 seconds, in a Branson sonifier operated at 50% duty cycles at 100 W. Membranes were separated from the soluble fraction by centrifugation at 37000 g for 30 minutes, and the supernatant (1 ml containing 1 mg total protein) was loaded on a detoxi-gel (agarose-immobilized-polymixin B) column (0.9×10 cm). The column was washed with 10 bed-volumes of PBS. Elution of the bound material was performed by washing with 10 bed volumes of PBS containing 1% Deoxycholic acid (w/v), according to the manufacturer's instructions. The bound fraction was dialyzed against distilled water, lyophilized, and lipids were extracted as mentioned.
This resin consists of immobilized polymixin B on agarose, and is used for the removal of endotoxins by binding to the lipid A portion of LPS.

[3] = test system: rabbits; assay: Immunization of rabbits with glycolipid, antibody titers by ELISA; assay type: in vivo, New Zealand White rabbits
Method: FIG. 10 is a graph showing antibody titers of sera from rabbits immunized with the glycolipid of formula B. Antibody titers were measured by an ELISA, as described below, and represent an average of four different rabbit sera, diluted 1:100, each tested in three independent assays. Open bars, IgG titers; gray bars, IgM titers; brackets, standard deviation.
(§1) Immunization and Immunostaining—Groups of ten female NIH Swiss albino mice (5-6 weeks old, general purpose) were immunized intraperitoneally with 2 doses of BBGL-II emulsified in complete Freund's adjuvant (first dose) or incomplete Freund's adjuvant (second dose) two weeks apart. The doses contained 10 μg BBGL-II per 0.1 ml and were administered IP in 0.1 ml. Alternatively, mice were immunized three times, 2 weeks apart, with 10 μg of BBGL-II emulsified in 0.1 ml of DMSO, squalene, or PBS. Mice were bled 2 weeks after the second dose and the sera thus obtained was kept at −20° C. until used. Rabbits (females, New Zealand White, 8 weeks old) were immunized with two doses of BBGL-II, 75 μg each, in Fruend's adjuvant, administered i.m. and i.c. in 20×0.05 ml.

[4] = test system: mice; assay: Immunization of mice with glycolipid, antibody titers by ELISA; assay type: in vivo, NIH Swiss albino mice
Method: FIG. 11 is a graph showing antibody titers of sera from ice immunized with the glycolipid of formula B. Mice (10 mice per group) were immunized as described below, with the glycolipid of formula B in Freund's adjuvant (CFA); PBS; DMSO, or squalene. Antibody titers were determined by an ELISA in sera diluted 1:100, and are represented as an average of three independent assays. Brackets, standard deviation.
as §1

[5] = ELISA and TLC overlay assays of antibodies raised against the synthetic analog; assay type: in vivo
Method: Immunostaining of membrane lipids was performed as previously described (15). Developed chromatogram plates, containing lipid spots, were coated with polyisobutyl-methacrylate solution (0.05% in hexane) and allowed to dry. The plates were then blocked with PBS containing 1% BSA and 0.05% tween 20 for 15 minutes, and then incubated with anti BBGL-II antiserum, diluted 1:100 in PBS-BSA buffer for 1 hour at 22° C. The plates were rinsed 5 times with PBS-BSA buffer and incubated with alkaline phosphatase-conjugated rat anti mouse IgG (KPL, MD) diluted 1:25,000 in PBS-BSA for 1 hour at 22° C. The plates were then washed, and developed using BCIP/NBT (KPL, MD).

## 1,2-diacyl-3-[O-α-D-galactopyranosyl]-sn-glycerol [BBGL-III]
[1]; data not shown
  isotype of induced antibodies: mostly IgM
[1]; data not shown, species not stated
  induction of antibodies: induced antibodies; also recorded: elicited antibodies
[1]; in vivo
  reactivity of induced antibodies with BBGL-II and BBGL-III: reacted with both glycolipids
[2]
  binding to Detoxi-Gel (polymixin B) column: not bound to the column

## CCCCCCCCCCCCCCCC(=O)OC[C@H]1O[C@@H](O[C@H]2CC[C@@]3(C)C(=CC[C@H]4[C@@H]5CC[C@H]([C@H](C)CCCC(C)C)[C@@]5(C)CC[C@@H]43)C2)[C@H](O)[C@@H](O)[C@H]1O [BBGL-II, cholesteryl 6-O-palmitoyl-β-D-galactopyranoside]
[3]
  isotype of elicited antibodies: mostly of the IgM isotype
  specificity of elicited antibodies: specific to the homologous glycolipid
[3]; Freund's adjuvant
  induction of antibodies: Specific antibodies were induced; also recorded: elicited antibodies
[4]; in PBS (likely as micelles) compared with solute in DMSO or squalene
  relative immunogenicity by formulation: more immunogenic than as a solute in DMSO or squalene
[4]; mice
  isotype of elicited antibodies: mostly of the IgM isotype
  specificity of elicited antibodies: specific to the homologous glycolipid
[4]; mice injected with various formulations
  induction of antibodies: Specific antibodies were induced; also recorded: elicited antibodies
[4]; with Freund's adjuvant, compared with PBS, DMSO, squalene
  antibody titers by formulation: Highest titers

## CC(C)CCCC(C)C1CCC2C3CC=C4CC(OC5OC(COC(=O)CCCCCCCCCCCCCCCN=[N+]=[N-])C(O)C(O)C5O)CCC4(C)C3CCC12C (stereo not shown) [compound 19]
[5]
  antibodies raised, compared with purified native BBGL-II: to the same extent as with the purified native BBGL-II
